Assay results: US20080009418A1, “Selective Inhibitors” (Alchemia LTD., priority 2004, published 2008)

Legend:
[1] = biological target: T1, Mouse urotensin (mUR2) (Mus musculus, UniProt Q8VIH9); assay: Radioligand binding, mouse urotensin mUR2 membranes, FlashPlate, [125I]-Urotensin II; conditions: compound at 10 μM; for A11 radioligand binding inhibition: mouse urotensin mUR2 membranes
T1 construct: purchased Perkin Elmer Biosignal
T1 sequence (Q8VIH9 1-385): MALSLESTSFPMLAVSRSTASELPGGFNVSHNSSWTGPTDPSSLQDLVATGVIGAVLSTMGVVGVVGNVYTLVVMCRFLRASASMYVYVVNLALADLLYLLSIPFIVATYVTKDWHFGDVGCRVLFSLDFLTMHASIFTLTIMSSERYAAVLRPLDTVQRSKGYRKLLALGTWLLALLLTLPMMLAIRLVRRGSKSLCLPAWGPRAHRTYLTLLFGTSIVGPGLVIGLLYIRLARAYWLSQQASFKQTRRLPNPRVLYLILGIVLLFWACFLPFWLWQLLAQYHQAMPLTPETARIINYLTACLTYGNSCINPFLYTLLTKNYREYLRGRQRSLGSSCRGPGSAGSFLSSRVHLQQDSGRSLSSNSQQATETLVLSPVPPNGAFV
Procedure, shortened: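 Cloned mouse urotensin (mUR2) receptor membranes from Perkin Elmer Biosignal were immobilized in FlashPlate microplates using a proprietary coating. Each well got 19.5 μl buffer, then 0.5 μl of DMSO, reference ligand, or compound. Adding 5 μl of [125I]-Urotensin II, diluted to 5× final concentration in binding buffer, started binding. Plates were sealed with TopSeal-A and incubated 1 hour at room temperature in the dark. Wells were counted for 30 seconds each on a TopCount after a 60-second delay, and percentage inhibition was calculated.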

[2] = biological target: T2, Human neuropeptide Y (NPY-Y1) (Homo sapiens, UniProt P25929); assay: Radioligand binding, human neuropeptide Y NPY-Y1 membranes, FlashPlate, [125I]-PYY; conditions: compound at 10 μM; for A9 radioligand binding inhibition: human NPY-Y1 membranes
T2 construct: purchased Perkin Elmer Biosignal
T2 sequence (P25929 1-384): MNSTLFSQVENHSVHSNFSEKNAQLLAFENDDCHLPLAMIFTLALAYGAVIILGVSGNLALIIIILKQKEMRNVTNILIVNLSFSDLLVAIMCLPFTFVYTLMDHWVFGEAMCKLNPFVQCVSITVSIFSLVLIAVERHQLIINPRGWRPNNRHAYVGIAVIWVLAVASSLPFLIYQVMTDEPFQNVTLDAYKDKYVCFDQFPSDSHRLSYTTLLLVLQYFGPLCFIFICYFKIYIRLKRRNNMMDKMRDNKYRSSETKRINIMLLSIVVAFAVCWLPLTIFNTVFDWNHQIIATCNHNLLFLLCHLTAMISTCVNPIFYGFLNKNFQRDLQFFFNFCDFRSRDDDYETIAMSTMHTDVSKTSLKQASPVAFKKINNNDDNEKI
Procedure, shortened: (§1)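 Cloned human receptor membranes were coated onto FlashPlate wells and incubated with radioligand and compound (added from a 0.5 mM DMSO daughter plate) for 1 hour at room temperature in the dark. Scintillation counting gave percent inhibition, with DMSO defining total and reference ligand defining non-specific binding.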

[3] = biological target: T3, Human κ-Opioid (KOP) (Homo sapiens, UniProt P41145); assay: Radioligand binding, human κ-opioid (KOP) membranes, filtration, [3H]-Diprenorphine; conditions: compound at 10 μM; for A2 radioligand binding inhibition: human κ-opioid (KOP) membranes
T3 construct: purchased Perkin Elmer Biosignal
Procedure, shortened: (§2)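 Percent inhibition of radioligand binding measured on recombinant human membranes: NK1 with [125I]-Substance P, KOP with [3H]-Diprenorphine. Incubation 1 h at room temperature, then harvest onto 0.3% PEI-soaked filters, cold Tris-HCl pH 7.4 washes and scintillation counting; non-specific binding from reference ligand wells.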

[4] = biological target: T4, Human neurokinin (NK1) (Homo sapiens, UniProt P25103); assay: Radioligand binding, human neurokinin NK1 membranes, filtration, [125I]-Substance P; conditions: compound at 10 μM; for A8 radioligand binding inhibition: human neurokinin NK1 membranes
T4 construct: purchased Perkin Elmer Biosignal
Procedure, shortened: as §2

[5] = biological target: T5, Human δ-opioid (DOP) (Homo sapiens, UniProt P41143); assay: Radioligand binding, human δ-opioid (DOP) membranes, FlashPlate, [3H]-Bremazocine; conditions: compound at 10 μM; for A1 radioligand binding inhibition: human δ-opioid (DOP) membranes
T5 construct: purchased Perkin Elmer Biosignal
Procedure, shortened: as §1

[6] = biological target: T6, Human Melanocortin (MC4) (Homo sapiens, UniProt P32245); assay: Radioligand binding, human melanocortin MC4 membranes, FlashPlate, [125I]-NDP-αMSH; conditions: compound at 10 μM; for A4 radioligand binding inhibition: human melanocortin MC4 membranes
T6 construct: purchased Perkin Elmer Biosignal
Procedure, shortened: as §1

[7] = biological target: T7, Human μ-opioid (MOP) (Homo sapiens, UniProt P35372); assay: Radioligand binding, human μ-opioid (MOP) membranes, FlashPlate, [3H]-Naloxone; conditions: compound at 10 μM; for A7 radioligand binding inhibition: human μ-opioid (MOP) membranes
T7 construct: purchased Perkin Elmer Biosignal
Procedure, shortened: as §1

[8] = biological target: T8, Human opioid (ORL1) (Homo sapiens, UniProt P41146); assay: Radioligand binding, human opioid ORL1 membranes, FlashPlate, [125I]-Nociceptin; conditions: compound at 10 μM; for A10 radioligand binding inhibition: human ORL1 membranes
T8 construct: purchased Perkin Elmer Biosignal
Procedure, shortened: as §1

[9] = biological target: T9, Human melanocortin (MC5) (Homo sapiens, UniProt P33032); assay: Radioligand binding, human melanocortin MC5 membranes, FlashPlate, [125I]-NDP-αMSH; conditions: compound at 10 μM; for A5 radioligand binding inhibition: human melanocortin MC5 membranes
T9 construct: purchased Perkin Elmer Biosignal
Procedure, shortened: as §1

[10] = biological target: T10, Human Melanocortin (MC3) (Homo sapiens, UniProt P41968); assay: Radioligand binding, human melanocortin MC3 membranes, FlashPlate, [125I]-NDP-αMSH; conditions: compound at 10 μM; for A3 radioligand binding inhibition: human melanocortin MC3 membranes
T10 construct: purchased Perkin Elmer Biosignal
Procedure, shortened: as §1

[11] = biological target: T11, Human melanin-concentrating hormone (MCH1) (Homo sapiens, UniProt Q99705); assay: Radioligand binding, human melanin-concentrating hormone MCH1 membranes, FlashPlate, [125I]-S36057; conditions: compound at 10 μM; for A6 radioligand binding inhibition: human MCH1 membranes
T11 construct: purchased Perkin Elmer Biosignal
Procedure, shortened: as §1

T7 sequence (P35372 whole entry): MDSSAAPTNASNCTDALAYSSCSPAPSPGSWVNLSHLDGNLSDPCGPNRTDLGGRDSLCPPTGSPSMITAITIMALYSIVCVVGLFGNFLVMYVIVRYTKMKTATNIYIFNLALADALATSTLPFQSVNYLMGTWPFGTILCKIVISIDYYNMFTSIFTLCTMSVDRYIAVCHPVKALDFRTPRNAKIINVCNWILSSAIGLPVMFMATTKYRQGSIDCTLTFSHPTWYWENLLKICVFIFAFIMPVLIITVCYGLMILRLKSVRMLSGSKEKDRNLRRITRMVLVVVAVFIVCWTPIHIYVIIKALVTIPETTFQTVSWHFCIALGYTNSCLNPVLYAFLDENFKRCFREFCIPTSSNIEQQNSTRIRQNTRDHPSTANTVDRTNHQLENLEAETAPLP
T11 sequence (Q99705 whole entry): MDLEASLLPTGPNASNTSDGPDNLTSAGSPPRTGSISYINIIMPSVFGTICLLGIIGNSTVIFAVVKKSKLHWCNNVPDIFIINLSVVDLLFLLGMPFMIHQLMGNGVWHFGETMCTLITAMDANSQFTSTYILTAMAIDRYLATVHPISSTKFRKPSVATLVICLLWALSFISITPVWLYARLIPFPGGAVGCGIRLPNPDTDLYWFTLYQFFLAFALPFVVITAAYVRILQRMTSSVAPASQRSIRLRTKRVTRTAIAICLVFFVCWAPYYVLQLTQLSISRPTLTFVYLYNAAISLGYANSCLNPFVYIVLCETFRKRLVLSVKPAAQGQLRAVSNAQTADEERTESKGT
T8 sequence (P41146 whole entry): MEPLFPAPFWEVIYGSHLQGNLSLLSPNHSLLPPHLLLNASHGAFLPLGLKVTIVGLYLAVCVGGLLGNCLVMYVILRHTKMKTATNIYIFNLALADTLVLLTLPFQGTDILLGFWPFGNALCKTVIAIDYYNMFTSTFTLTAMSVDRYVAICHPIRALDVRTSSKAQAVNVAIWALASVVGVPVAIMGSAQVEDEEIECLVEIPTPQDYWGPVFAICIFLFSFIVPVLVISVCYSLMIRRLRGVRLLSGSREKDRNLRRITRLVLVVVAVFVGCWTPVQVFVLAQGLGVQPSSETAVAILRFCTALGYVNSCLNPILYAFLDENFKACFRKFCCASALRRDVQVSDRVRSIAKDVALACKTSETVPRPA
T3 sequence (P41145 whole entry): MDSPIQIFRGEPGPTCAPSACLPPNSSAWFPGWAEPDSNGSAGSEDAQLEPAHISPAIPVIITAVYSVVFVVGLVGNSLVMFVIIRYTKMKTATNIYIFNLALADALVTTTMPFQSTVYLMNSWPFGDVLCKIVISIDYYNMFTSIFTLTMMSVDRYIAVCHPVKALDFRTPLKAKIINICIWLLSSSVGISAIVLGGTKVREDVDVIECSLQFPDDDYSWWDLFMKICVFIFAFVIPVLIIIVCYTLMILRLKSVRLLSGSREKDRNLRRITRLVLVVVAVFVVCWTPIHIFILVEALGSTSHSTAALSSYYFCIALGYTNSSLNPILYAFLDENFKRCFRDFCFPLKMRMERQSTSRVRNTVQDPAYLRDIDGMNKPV
T9 sequence (P33032 whole entry): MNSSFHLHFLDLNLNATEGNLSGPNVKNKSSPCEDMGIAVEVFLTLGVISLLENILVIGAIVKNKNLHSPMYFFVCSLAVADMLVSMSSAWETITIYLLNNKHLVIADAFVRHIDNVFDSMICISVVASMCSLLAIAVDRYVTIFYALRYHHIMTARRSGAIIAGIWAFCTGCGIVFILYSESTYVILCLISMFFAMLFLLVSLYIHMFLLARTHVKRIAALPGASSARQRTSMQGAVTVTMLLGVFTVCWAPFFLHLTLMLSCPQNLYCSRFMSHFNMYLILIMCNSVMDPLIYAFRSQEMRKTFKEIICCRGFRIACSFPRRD
T6 sequence (P32245 whole entry): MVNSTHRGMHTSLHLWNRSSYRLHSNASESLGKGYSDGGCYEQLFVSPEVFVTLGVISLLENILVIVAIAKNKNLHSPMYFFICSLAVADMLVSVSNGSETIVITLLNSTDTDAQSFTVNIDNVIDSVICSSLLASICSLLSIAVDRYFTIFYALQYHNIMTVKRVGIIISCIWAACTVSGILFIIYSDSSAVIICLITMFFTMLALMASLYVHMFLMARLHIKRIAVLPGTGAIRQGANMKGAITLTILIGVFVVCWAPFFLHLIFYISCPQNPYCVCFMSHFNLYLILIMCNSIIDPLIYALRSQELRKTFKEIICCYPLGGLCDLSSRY
T5 sequence (P41143 whole entry): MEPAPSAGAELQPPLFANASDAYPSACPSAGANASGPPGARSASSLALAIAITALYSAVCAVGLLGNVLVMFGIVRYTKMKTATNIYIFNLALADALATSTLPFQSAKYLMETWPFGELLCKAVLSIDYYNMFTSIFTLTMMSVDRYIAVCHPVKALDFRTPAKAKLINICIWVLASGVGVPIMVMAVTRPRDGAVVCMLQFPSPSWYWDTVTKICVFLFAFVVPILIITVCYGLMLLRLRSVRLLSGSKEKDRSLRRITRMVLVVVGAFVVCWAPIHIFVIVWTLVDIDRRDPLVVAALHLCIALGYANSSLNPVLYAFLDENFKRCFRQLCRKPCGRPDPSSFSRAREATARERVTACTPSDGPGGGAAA
T10 sequence (P41968 whole entry): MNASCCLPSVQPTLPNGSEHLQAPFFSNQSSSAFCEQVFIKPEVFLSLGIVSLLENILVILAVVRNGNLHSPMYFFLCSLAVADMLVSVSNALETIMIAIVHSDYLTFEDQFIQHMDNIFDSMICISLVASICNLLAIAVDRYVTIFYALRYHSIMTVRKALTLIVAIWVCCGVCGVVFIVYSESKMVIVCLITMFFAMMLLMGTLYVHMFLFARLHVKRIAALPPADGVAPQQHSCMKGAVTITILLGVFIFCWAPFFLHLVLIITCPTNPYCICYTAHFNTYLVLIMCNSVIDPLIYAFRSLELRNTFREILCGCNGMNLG
T4 sequence (P25103 whole entry): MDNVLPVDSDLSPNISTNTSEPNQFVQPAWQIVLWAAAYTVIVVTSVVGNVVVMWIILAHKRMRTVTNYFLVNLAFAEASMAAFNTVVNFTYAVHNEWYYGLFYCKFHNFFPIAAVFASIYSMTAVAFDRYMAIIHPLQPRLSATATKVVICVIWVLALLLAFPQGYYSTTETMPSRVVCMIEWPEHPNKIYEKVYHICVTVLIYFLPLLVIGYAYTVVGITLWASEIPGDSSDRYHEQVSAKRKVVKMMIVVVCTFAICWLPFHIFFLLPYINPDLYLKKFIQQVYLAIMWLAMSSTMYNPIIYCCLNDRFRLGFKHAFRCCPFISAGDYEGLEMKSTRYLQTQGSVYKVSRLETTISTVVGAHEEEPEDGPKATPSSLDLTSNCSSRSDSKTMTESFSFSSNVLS

SMILES | A11 radioligand binding inhibition [1] | A9 radioligand binding inhibition [2] | A2 radioligand binding inhibition [3] | A8 radioligand binding inhibition [4] | A1 radioligand binding inhibition [5] | A4 radioligand binding inhibition [6] | A7 radioligand binding inhibition [7] | A10 radioligand binding inhibition [8] | A5 radioligand binding inhibition [9] | A3 radioligand binding inhibition [10] | A6 radioligand binding inhibition [11] | A11 radioligand binding, percentage inhibition ([1]; [125I]-Urotensin II) | A9 radioligand binding, percentage inhibition ([2]; [125I]-PYY) | A2 radioligand binding, percentage inhibition ([3]; [3H]-Diprenorphine) | A8 radioligand binding, percentage inhibition ([4]; [125I]-Substance P) | A1 radioligand binding, percentage inhibition ([5]; [3H]-Bremazocine) | A4 radioligand binding, percentage inhibition ([6]; [125I]-NDP-αMSH) | A7 radioligand binding, percentage inhibition ([7]; [3H]-Naloxone) | A10 radioligand binding, percentage inhibition ([8]; [125I]-Nociceptin) | A5 radioligand binding, percentage inhibition ([9]; [125I]-NDP-αMSH) | further results
COC[C@H]1OC(OCc2ccc(-c3ccccc3)cc2)[C@H](NC(=O)CCCN)[C@@H](OCc2ccc(-c3ccccc3)cc2)[C@@H]1O (stereo partly drawn) [compound 2] | − (“−” indicates less than 50% inhibition at 10 μM) | − (“−” indicates less than 50% inhibition at 10 μM) | − (“−” indicates less than 50% inhibition at 10 μM) | + (“+” indicates greater than 50% inhibition at 10 μM) | − (“−” indicates less than 50% inhibition at 10 μM) | + (“+” indicates greater than 50% inhibition at 10 μM) | − (“−” indicates less than 50% inhibition at 10 μM) | − (“−” indicates less than 50% inhibition at 10 μM) | + (“+” indicates greater than 50% inhibition at 10 μM) | − (“−” indicates less than 50% inhibition at 10 μM) | + (“+” indicates greater than 50% inhibition at 10 μM) | – | – | – | – | – | – | – | – | – | –
CO[C@H]1[C@H](O)[C@@H](COCc2ccccc2)OC(OCc2ccc3ccccc3c2)[C@@H]1NC(=O)CCCN (stereo partly drawn) [compound 76] | − (“−” indicates less than 50% inhibition at 10 μM) | − (“−” indicates less than 50% inhibition at 10 μM) | − (“−” indicates less than 50% inhibition at 10 μM) | + (“+” indicates greater than 50% inhibition at 10 μM) | − (“−” indicates less than 50% inhibition at 10 μM) | − (“−” indicates less than 50% inhibition at 10 μM) | − (“−” indicates less than 50% inhibition at 10 μM) | − (“−” indicates less than 50% inhibition at 10 μM) | − (“−” indicates less than 50% inhibition at 10 μM) | − (“−” indicates less than 50% inhibition at 10 μM) | − (“−” indicates less than 50% inhibition at 10 μM) | – | – | – | – | – | – | – | – | – | –
COCC1OC(OCc2ccccc2)C(NC(=O)CCCNC(=N)N)C(OCc2ccc(Cl)cc2)C1O (stereo not drawn) [compound 181] | – | – | – | – | – | – | – | – | – | – | – | − (“−” indicates less than 50% inhibition at 10 μM) | − (“−” indicates less than 50% inhibition at 10 μM) | − (“−” indicates less than 50% inhibition at 10 μM) | + (“+” indicates greater than 50% inhibition at 10 μM) | − (“−” indicates less than 50% inhibition at 10 μM) | + (“+” indicates greater than 50% inhibition at 10 μM) | − (“−” indicates less than 50% inhibition at 10 μM) | − (“−” indicates less than 50% inhibition at 10 μM) | + (“+” indicates greater than 50% inhibition at 10 μM) | A3 radioligand binding, percentage inhibition ([10]; [125I]-NDP-αMSH): − (“−” indicates less than 50% inhibition at 10 μM); A6 radioligand binding, percentage inhibition ([11]; [125I]-S36057): + (“+” indicates greater than 50% inhibition at 10 μM)
CO[C@H]1[C@H](O)[C@@H](COCc2ccc(Cl)cc2)OC(OCc2ccc3ccccc3c2)[C@@H]1NC(=O)CCNC(=N)N (stereo partly drawn) [compound 79] | − (“−” indicates less than 50% inhibition at 10 μM) | − (“−” indicates less than 50% inhibition at 10 μM) | − (“−” indicates less than 50% inhibition at 10 μM) | + (“+” indicates greater than 50% inhibition at 10 μM) | − (“−” indicates less than 50% inhibition at 10 μM) | + (“+” indicates greater than 50% inhibition at 10 μM) | + (“+” indicates greater than 50% inhibition at 10 μM) | − (“−” indicates less than 50% inhibition at 10 μM) | + (“+” indicates greater than 50% inhibition at 10 μM) | − (“−” indicates less than 50% inhibition at 10 μM) | − (“−” indicates less than 50% inhibition at 10 μM) | – | – | – | – | – | – | – | – | – | –
CO[C@H]1[C@H](O)[C@@H](COCc2cccc(O)c2)OC(OCc2ccc3ccccc3c2)[C@@H]1NC(=O)CNC(=N)N (stereo partly drawn) [compound 150] | – | – | – | – | – | – | – | – | – | – | – | − (“−” indicates less than 50% inhibition at 10 μM) | − (“−” indicates less than 50% inhibition at 10 μM) | + (“+” indicates greater than 50% inhibition at 10 μM) | − (“−” indicates less than 50% inhibition at 10 μM) | − (“−” indicates less than 50% inhibition at 10 μM) | − (“−” indicates less than 50% inhibition at 10 μM) | + (“+” indicates greater than 50% inhibition at 10 μM) | − (“−” indicates less than 50% inhibition at 10 μM) | + (“+” indicates greater than 50% inhibition at 10 μM) | A3 radioligand binding, percentage inhibition ([10]; [125I]-NDP-αMSH): − (“−” indicates less than 50% inhibition at 10 μM); A6 radioligand binding, percentage inhibition ([11]; [125I]-S36057): − (“−” indicates less than 50% inhibition at 10 μM)
CSC1OC(COCc2ccc(Cl)cc2)C(O)C(OCc2ccc3ccccc3c2)C1NC(=O)CCN (stereo not drawn) [compound 308] | – | – | – | – | – | – | – | – | – | – | – | – | – | – | – | – | – | – | – | – | A11: inhibition of radioligand binding, mouse urotensin (mUR2) ([1]; [125I]-Urotensin II): − (“−” indicates less than 50% inhibition at 10 μM); A9: inhibition of radioligand binding, human neuropeptide Y (NPY-Y1) ([2]; [125I]-PYY): − (“−” indicates less than 50% inhibition at 10 μM); A2: inhibition of radioligand binding, human κ-opioid (KOP) ([3]; [3H]-Diprenorphine): − (“−” indicates less than 50% inhibition at 10 μM); A8: inhibition of radioligand binding, human neurokinin (NK1) ([4]; [125I]-Substance P): + (“+” indicates greater than 50% inhibition at 10 μM); A1: inhibition of radioligand binding, human δ-opioid (DOP) ([5]; [3H]-Bremazocine): − (“−” indicates less than 50% inhibition at 10 μM); A4: inhibition of radioligand binding, human melanocortin (MC4) ([6]; [125I]-NDP-αMSH): − (“−” indicates less than 50% inhibition at 10 μM); A7: inhibition of radioligand binding, human μ-opioid (MOP) ([7]; [3H]-Naloxone): − (“−” indicates less than 50% inhibition at 10 μM); A10: inhibition of radioligand binding, human opioid (ORL1) ([8]; [125I]-Nociceptin): − (“−” indicates less than 50% inhibition at 10 μM); A5: inhibition of radioligand binding, human melanocortin (MC5) ([9]; [125I]-NDP-αMSH): − (“−” indicates less than 50% inhibition at 10 μM); A3: inhibition of radioligand binding, human melanocortin (MC3) ([10]; [125I]-NDP-αMSH): − (“−” indicates less than 50% inhibition at 10 μM); A6: inhibition of radioligand binding, human melanin-concentrating hormone (MCH1) ([11]; [125I]-S36057): − (“−” indicates less than 50% inhibition at 10 μM)
